The source of these data is patent US20150164910A1, “ANTIVIRAL COMPOUNDS AND METHODS OF USE” (The Regents of the University of Califonia, priority 2012, published 2015).

The subject of one assay is CVB3-H3. In words: Plaque reduction assay, CVB3-H3 in HeLa-RW cells. The format is cell-based, coxsackievirus B3. Conditions: compound added 30 min before infection, CVB3-H3 MOI 1, HeLa-RW, 6 hours; log10(titer with DMSO only/titer with inhibitor). (In a plaque reduction assay, fewer plaques than in the control indicate reduced infectivity or spread.)
In assay [1] the test system is eGFP-expressing recombinant CVB3. The format is cell-based, coxsackievirus B3. The note with it: eGFP-CVB3 m.o.i=1, compound added at time of infection, 6 hr post infection; 1-(% eGFP+ cells with compound/% with DMSO only). Also: test concentration or dose not given here.

Turning to `NC(=O)C1CCN(CC(=O)N2N=C3/C(=C/c4cccs4)CCCC3C2c2cccs2)CC1` (stereo not shown) [Compound 63, 1-{2-Oxo-2-[(7E)-3-(2-thienyl)-7-(2-thienylmethylene)-3,3a,4,5,6,7-hexahydro-2H-indazol-2-yl]ethyl}-4-piperidine-carboxamide], the “Log10 reduction of virus titer” value in the assay with CVB3-H3 worked out at 4.2. For the same compound, the “Inhibition of infected cells” value in assay [1] is on record as 100%.

In the case of `Cl.O[C@@H]1[C@@H](O)C=C2CCN3Cc4cc5c(cc4[C@H]1C23)OCO5` (stereo partly drawn) [Compound 73, (1S,2S,12bS)-2,4,5,7,12b,12c-Hexahydro-1H-[1,3]dioxolo[4,5-j]pyrrolo[3,2,1-de] phenanthridine-1,2-diol hydrochloride (1:1), reference compound], the “Log10 reduction of virus titer” value with CVB3-H3 came out at 2.8. Also, the “Inhibition of infected cells” value in assay [1] amounted to 100%.

On to `Cl.Cl.OCCN1CCN(CC/C=C2/c3ccccc3Sc3ccc(C(F)(F)F)cc32)CC1` [Compound 70, 2-(4-{(3Z)-3-[2-(Trifluoromethyl)-9H-thioxanthen-9-ylidene]propyl}-1-piperazinyl)ethanol dihydrochloride, reference compound], for which, in the assay with CVB3-H3, the “Log10 reduction of virus titer” value amounted to 3.9. Further, the “Inhibition of infected cells” value in assay [1] was determined as 99.6%.

With `Cc1ccc(NC(=O)c2cc(-c3cccs3)nc3c2cnn3C(C)C)c(F)c1` [Compound 5, N-(2-Fluoro-4-methylphenyl)-1-isopropyl-6-(2-thienyl)-1H-pyrazolo[3,4-b] pyridine-4-carboxamide], the “Log10 reduction of virus titer” value in the assay with CVB3-H3 came to 4.4. In assay [1], the “Inhibition of infected cells” value was 99.3%.

With `NC1=Nc2nc3ccccc3n2C(c2ccc3ccccc3c2)N1` (stereo not shown) [Compound 67, 4-(2-Naphthyl)-1,4-dihydro[1,3,5] triazino[1,2-a]benzimidazol-2-amine], in the assay with CVB3-H3, the “Log10 reduction of virus titer” value was 1.9. Besides, the “Inhibition of infected cells” value in assay [1] amounted to 67.7%.

As to `O=C(N/N=C/c1ccc(O)cc1)c1cc(-c2ccccc2)nc2ccccc12` [Compound 29, N′-[(E)-(4-Hydroxyphenyl)methylene]-2-phenyl-4-quinoline-carbohydrazide], the “Log10 reduction of virus titer” value in the assay on CVB3-H3 amounted to 3.8. For the same compound, the “Inhibition of infected cells” value in assay [1] was determined as 100%.

Turning to `Cc1ccc(S(C)(=O)=O)cc1NC(=O)c1cc(C2CC2)nc2c1cnn2C(C)C` [Compound 12, 6-Cyclopropyl-1-isopropyl-N-[2-methyl-5-(methylsulfonyl)phenyl]-1H-pyrazolo[3,4-b] pyridine-4-carboxamide], in the assay with CVB3-H3, the “Log10 reduction of virus titer” value is on record as 4.2. Also, in assay [1], the “Inhibition of infected cells” value is 100%.

Regarding `COc1ccc(-c2nc(C)c(C(=O)Nc3cccc(-c4nnc5n4CCCCC5)c3)s2)cc1` [Compound 61, 2-(4-Methoxyphenyl)-4-methyl-N-[3-(6,7,8,9-tetrahydro-5H-[1,2,4]triazolo [4,3-a]azepin-3-yl)phenyl]-1,3-thiazole-5-carboxamide], the “Log10 reduction of virus titer” value in the assay on CVB3-H3 amounted to 1.8. In addition, the “Inhibition of infected cells” value in assay [1] is listed as 96.0%.

As to `Nc1nnc(SCc2nc3cc(Cl)ccc3n2Cc2ccccc2)s1` [Compound 43, 5-{[(1-Benzyl-5-chloro-1H-benzimidazol-2-yl)methyl]sulfanyl}-1,3,4-thiadiazol-2-amine], in the assay with CVB3-H3, the “Log10 reduction of virus titer” value amounted to 0.3. Further, in assay [1], the “Inhibition of infected cells” value came out at 91.3%.

As to `Brc1ccc(-c2csc3ncnc(Sc4nnc(C5CC5)o4)c23)cc1` [Compound 53, 5-(4-Bromophenyl)-4-[(5-cyclopropyl-1,3,4-oxadiazol-2-yl)sulfanyl]thieno [2,3-d]pyrimidine], the “Log10 reduction of virus titer” value in the assay with CVB3-H3 was 1.8. In addition, the “Inhibition of infected cells” value in assay [1] was determined as 100%.

In the case of `Cc1ccc([S+]([O-])Nc2cccc(C(=O)O)c2)cc1` (stereo not shown) [Compound 55, 3-{[(4-Methylphenyl)sulfinyl]amino} benzoic acid], the “Log10 reduction of virus titer” value in the assay on CVB3-H3 came out at 2.5. Also, in assay [1], the “Inhibition of infected cells” value amounted to 98.4%.
